# According to patent US10689378B2, “Triazolopyridine compounds and uses thereof” (Novartis AG, priority 2016, dated 2020):
# Where two headings read alike, the source gives them in different places.
# Key:
# [1] = target: wild type PRC2 (wtPRC2) complex (Homo sapiens, UniProt O75530); assay: EED LC-MS assay (SAH production by PRC2); assay type: biochemical
# Procedure, shortened: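 Pentameric PRC2 (EZH2, SUZ12, EED, Rbap48, AEBP), 12 nM final, preincubated 20 min with compound and SAM, then 1.5 μM biotinylated H3K27me0 peptide, 1 μM SAM, pH 8.0, 120 min at rt. SAH quantified by LC-MS/MS with d4-SAH; control-normalized activity fitted for IC50.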
# [2] = system: H3K27 methylation in G401 cell; assay: ELISA (H3K27 methylation) assay in G401 cells; assay type: cell-based, human; settings: Homo sapiens
# Procedure, shortened: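 G401 cells treated 48 h with 3-fold dilutions (8 or 12 points, top 20 μM). Acid-extracted histones probed by ELISA for H3K27me3 or H3K27me2 with ECL readout, normalized to total H3. Percent inhibition versus DMSO fitted to dose-response curve for IC50.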
# EED (1-441)-His protein = target: T1, EED (1-441)-His protein (Homo sapiens, UniProt O75530); assay: EED-H3K27Me3 peptide competition binding assay by AlphaScreen
# T1 construct: 30 nM EED (1-441)-His protein
# Procedure, shortened: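 Serially diluted compound (12 points, 3-fold) incubated 20 min with 30 nM EED(1-441)-His and 15 nM biotin-H3K27Me3(19-33) peptide in 25 mM HEPES pH 8, 0.02% Tween-20, 0.5% BSA. Ni-chelate acceptor/streptavidin donor beads (10 μg/mL each) added, 1 h rt dark; 615 nm emission normalized to controls, dose-response fit for IC50.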
# [3] = PRC2 LC-MS assay, read-out: (b) IC50 EED LC-MS Qualified
# [4] = G-401, H3K27 methylation ELISA, read-out: (c) IC50 ELISA Qualified
# [5] = EED-H3K27Me3 peptide competition, AlphaScreen, read-out: (a) IC50 EED Alphascreen binding Qualified
# [6] = read-out: (b) IC50, EED LC-MS Qualified
# [7] = G-401, read-out: (c) IC50, ELISA Qualified
# [8] = read-out: (a) IC50, EED Alphascreen binding Qualified
# T1 sequence (O75530 whole entry): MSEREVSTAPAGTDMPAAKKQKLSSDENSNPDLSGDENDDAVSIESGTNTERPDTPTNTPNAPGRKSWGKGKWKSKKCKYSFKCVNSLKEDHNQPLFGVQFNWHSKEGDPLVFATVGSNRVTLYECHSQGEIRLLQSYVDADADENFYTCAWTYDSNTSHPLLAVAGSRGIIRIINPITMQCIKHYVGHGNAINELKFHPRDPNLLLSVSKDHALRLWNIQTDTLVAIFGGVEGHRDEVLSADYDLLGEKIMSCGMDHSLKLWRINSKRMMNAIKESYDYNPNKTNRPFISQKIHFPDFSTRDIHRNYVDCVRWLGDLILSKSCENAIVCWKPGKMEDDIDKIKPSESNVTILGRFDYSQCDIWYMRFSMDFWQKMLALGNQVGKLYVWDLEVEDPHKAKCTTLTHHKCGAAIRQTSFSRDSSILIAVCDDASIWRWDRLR
# wild type PRC2 (wtPRC2) complex, sequence (O75530 whole entry): as above
# wild type PRC2 (wtPRC2) complex, sequence (Q15910 whole entry partner): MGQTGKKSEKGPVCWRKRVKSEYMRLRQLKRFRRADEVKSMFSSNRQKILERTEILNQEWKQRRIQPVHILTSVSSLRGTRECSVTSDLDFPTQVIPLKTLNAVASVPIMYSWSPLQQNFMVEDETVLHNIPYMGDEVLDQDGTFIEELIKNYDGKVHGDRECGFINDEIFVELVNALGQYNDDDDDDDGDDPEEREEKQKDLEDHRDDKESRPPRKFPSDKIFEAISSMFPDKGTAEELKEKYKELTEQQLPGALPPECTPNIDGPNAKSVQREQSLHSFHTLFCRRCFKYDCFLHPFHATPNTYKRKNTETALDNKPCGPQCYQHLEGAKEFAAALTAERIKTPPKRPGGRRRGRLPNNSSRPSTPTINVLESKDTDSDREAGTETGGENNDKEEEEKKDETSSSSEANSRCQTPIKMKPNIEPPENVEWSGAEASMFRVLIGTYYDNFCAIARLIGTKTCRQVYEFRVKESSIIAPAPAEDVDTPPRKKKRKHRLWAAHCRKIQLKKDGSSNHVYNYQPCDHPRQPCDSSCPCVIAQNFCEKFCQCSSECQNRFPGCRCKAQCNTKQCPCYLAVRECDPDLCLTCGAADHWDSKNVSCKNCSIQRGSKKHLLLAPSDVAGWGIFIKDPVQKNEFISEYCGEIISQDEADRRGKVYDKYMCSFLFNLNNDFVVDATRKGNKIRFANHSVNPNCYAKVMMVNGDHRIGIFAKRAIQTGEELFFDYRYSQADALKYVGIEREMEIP
# wild type PRC2 (wtPRC2) complex, sequence (Q15022 whole entry partner): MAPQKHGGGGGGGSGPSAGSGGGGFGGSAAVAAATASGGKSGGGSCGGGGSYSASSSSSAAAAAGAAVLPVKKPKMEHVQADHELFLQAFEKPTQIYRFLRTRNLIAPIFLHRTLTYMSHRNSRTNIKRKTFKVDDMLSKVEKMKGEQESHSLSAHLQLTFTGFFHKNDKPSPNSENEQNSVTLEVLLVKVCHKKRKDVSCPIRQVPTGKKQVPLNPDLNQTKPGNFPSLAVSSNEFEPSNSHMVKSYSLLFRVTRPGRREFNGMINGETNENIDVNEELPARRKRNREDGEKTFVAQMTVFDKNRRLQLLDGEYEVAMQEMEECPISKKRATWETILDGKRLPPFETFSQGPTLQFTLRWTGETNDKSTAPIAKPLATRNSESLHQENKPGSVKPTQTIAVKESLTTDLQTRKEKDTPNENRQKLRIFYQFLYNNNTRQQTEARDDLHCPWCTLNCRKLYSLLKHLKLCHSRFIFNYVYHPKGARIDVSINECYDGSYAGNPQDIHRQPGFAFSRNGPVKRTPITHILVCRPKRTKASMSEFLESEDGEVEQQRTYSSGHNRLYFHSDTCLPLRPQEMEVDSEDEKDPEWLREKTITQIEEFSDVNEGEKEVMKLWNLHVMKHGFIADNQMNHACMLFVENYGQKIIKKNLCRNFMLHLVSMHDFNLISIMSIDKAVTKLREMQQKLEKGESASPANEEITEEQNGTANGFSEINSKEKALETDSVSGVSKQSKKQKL
# wild type PRC2 (wtPRC2) complex, sequence (Q09028 whole entry partner): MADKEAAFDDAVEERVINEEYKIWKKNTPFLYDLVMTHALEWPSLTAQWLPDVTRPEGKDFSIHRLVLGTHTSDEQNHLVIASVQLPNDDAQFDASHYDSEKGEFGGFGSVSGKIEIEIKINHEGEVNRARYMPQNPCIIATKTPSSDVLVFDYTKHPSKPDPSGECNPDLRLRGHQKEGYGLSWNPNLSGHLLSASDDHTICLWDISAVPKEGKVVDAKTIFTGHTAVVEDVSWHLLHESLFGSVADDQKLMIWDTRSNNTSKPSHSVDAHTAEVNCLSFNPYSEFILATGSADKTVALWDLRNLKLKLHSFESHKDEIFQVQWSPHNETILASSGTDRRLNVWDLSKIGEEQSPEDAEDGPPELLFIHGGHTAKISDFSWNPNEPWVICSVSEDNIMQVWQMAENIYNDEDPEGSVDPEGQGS
# wild type PRC2 (wtPRC2) complex, sequence (Q6ZN18 whole entry partner): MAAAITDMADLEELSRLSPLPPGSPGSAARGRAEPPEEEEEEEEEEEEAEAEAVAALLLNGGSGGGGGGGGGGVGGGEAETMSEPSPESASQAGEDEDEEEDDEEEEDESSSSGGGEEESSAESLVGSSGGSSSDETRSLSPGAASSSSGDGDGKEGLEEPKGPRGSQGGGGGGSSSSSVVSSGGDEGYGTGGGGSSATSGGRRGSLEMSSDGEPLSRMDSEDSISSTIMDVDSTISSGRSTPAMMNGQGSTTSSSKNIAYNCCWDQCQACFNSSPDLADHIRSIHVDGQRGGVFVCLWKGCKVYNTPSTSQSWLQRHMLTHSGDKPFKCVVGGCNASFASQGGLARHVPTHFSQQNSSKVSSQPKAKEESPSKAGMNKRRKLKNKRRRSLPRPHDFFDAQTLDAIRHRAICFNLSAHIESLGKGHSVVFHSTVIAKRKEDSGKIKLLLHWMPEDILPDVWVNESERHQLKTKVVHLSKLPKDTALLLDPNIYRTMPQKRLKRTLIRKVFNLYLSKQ
SMILES,"IC50 [1, 3]","IC50 [2, 4]",IC50 (EED (1-441)-His protein; [5]),other results
"COc1cccc(F)c1CNc1ccc(-c2cnn(C)c2CO)c2nncn12 [Example 336, (4-(5-((2-fluoro-6-methoxy benzyl)amino)-[1,2,4]triazolo[4,3-a]pyridin-8-yl)-1-methyl-1H-pyrazol-5-yl) methanol]",59.5 nM,12.1 nM,12.8 nM,
"COCc1cncc(-c2ccc(NCc3c(F)cccc3OC)n3cnnc23)c1 [Example 203, N-(2-fluoro-6-methoxybenzyl)-8-(5-(methoxymethyl)pyridin-3-yl)-[1,2,4]triazolo[4,3-a] pyridin-5-amine]",73 nM,38.7 nM,53.8 nM,
"COc1cccc(F)c1CNc1ccc(-c2cncnc2C(C)C)c2nncn12 [Example 273, N-(2-fluoro-6-methoxybenzyl)-8-(4-isopropylpyrimidin-5-yl)-[1,2,4] triazolo[4,3-a]pyridin-5-amine]",99.7 nM,61.3 nM,69 nM,
"COc1cccc(F)c1CNc1ccc(-c2cc(C(F)F)ncc2C)c2nncn12 [Example 306, 8-(2-(difluoromethyl)-5-methylpyridin-4-yl)-N-(2-fluoro-6-methoxybenzyl)-[1,2,4]triazolo[4,3-a]pyridin-5-amine]",41.8 nM,15.5 nM,30.9 nM,
"CCN1CCC(S(=O)(=O)c2ccc(-c3ccc(NCc4ccccc4OC)n4cnnc34)cn2)CC1 [Example 143, 8-(6-((1-ethylpiperidin-4-yl)sulfonyl)pyridin-3-yl)-N-(2-methoxybenzyl)-[1,2,4] triazolo[4,3-a]pyridin-5-amine]",,,,"IC50 [1, 6]: 323 nM; IC50 [2, 7]: 53.2 nM; IC50 (EED (1-441)-His protein; [8]): 31.1 nM"
"COc1cccc(F)c1CNc1ccc(-c2cnc(C3CC3)nc2C)c2nncn12 [Example 284, 8-(2-cyclopropyl-4-methylpyrimidin-5-yl)-N-(2-fluoro-6-methoxybenzyl)-[1,2,4] triazolo[4,3-a]pyridin-5-amine]",44.4 nM,10.5 nM,9.6 nM,
"COc1cccc(F)c1CNc1ccc(-c2ccc(C(C)(C)C#N)nc2C)c2nncn12 [Example 369, 2-(5-(5-((2-fluoro-6-methoxybenzyl)amino)-[1,2,4]triazolo[4,3-a]pyridin-8-yl)-6-methylpyridin-2-yl)-2-methylpropanenitrile]",,,,"IC50 ([1]; read-out: (b) IC50 EED LC-MS Qualified): 205 nM; IC50 ([2]; G-401, read-out: (c) IC50 ELISA Qualified): 2.9 nM; IC50 (EED (1-441)-His protein; read-out: (a) IC50 EED Alphascreen binding Qualified): 5.2 nM"
"COc1ccccc1CNc1ccc(-c2ccc(CN3CCOCC3)cc2)c2nncn12 [Example 30, N-(2-methoxybenzyl)-8-(4-(morpholinomethyl)phenyl)-[1,2,4]triazolo[4,3-a]pyridin-5-amine]",,,,"IC50 [1, 6]: 483 nM; IC50 [2, 7]: 113 nM; IC50 (EED (1-441)-His protein; [8]): 38.2 nM"
"CCOc1ncc(-c2ccc(NCc3c(F)cc(F)cc3OC)n3cnnc23)c(C)n1 [Example 343, N-(2,4-difluoro-6-methoxybenzyl)-8-(2-ethoxy-4-methylpyrimidin-5-yl)-[1,2,4]triazolo[4,3-a]pyridin-5-amine]",492 nM,36.5 nM,25.7 nM,
"COc1cccc(F)c1CNc1ccc(-c2ncccc2C)c2nncn12 [Example 6, N-(2-Fluoro-6-methoxybenzyl)-8-(3-methylpyridin-2-yl)-[1,2,4]triazolo[4,3-a]pyridin-5-amine]",,,,"IC50 [1, 6]: 149 nM; IC50 [2, 7]: 57 nM; IC50 (EED (1-441)-His protein; [8]): 90.9 nM"
"COC(=O)N1CCC(n2cc(-c3ccc(NCc4c(F)cccc4OC)n4cnnc34)cn2)CC1 [Example 246, methyl 4-(4-(5-((2-fluoro-6-methoxybenzyl)amino)-[1,2,4]triazolo[4,3-a]pyridin-8-yl)-1H-pyrazol-1-yl) piperidine-1-carboxylate]",106 nM,242 nM,68.9 nM,
